The values below come from US20230024442A1, “BIFUNCTIONAL COMPOUNDS FOR GRADING BTK VIA UBIQUITIN PROTEOSOME PATHWAY” (NURIX THERAPEUTICS, INC., priority 2019, published 2023).

This experiment deals with T1, BTK (Homo sapiens, UniProt Q06187).
T1 construct: endogenous in cells; host or cells: Ramos (ATCC CRL-1596)
Description: Cellular BTK HTRF Assay (BTK levels in Ramos cells). The settings on record: Ramos cells, 50,000 cells, incubated four hours at 37° C.; BTK levels by Cisbio Total-BTK HTRF relative to DMSO-treated cells. The format is cell-based. Here is the method:
Ramos (CRL-1596) cells were obtained from American Type Culture Collection and were grown in RPMI-1640 media (ATCC, 30-2001) supplemented with 10% heat-inactivated FBS (Corning Premium Fetal Bovine Serum from Fisher, MT35015CV).
Compounds of the present invention were added to 50,000 Ramos cells in round-bottom 96 well plates with a final DMSO concentration of […] and were incubated at 37° C. 5% CO2 for four hours. BTK levels were determined using Cisbio Total-BTK HTRF ([…] Time-Resolved Fluorescence) kit (63ADK064PEG) according to manufacturer's protocol. Briefly, cells were incubated in 1× supplied lysis buffer for 30 minutes. In an opaque white low volume 96 well plate (Cisbio, 66PL96005), cell lysate was combined with two different specific BTK antibodies, one conjugated with Eu^3+-Cryptate FRET donor and one conjugated with d2 FRET acceptor. Assay controls include wells containing cell lysate with only the Eu^3+-Cryptate FRET donor antibody and wells containing both HTRF antibodies and lysis buffer without cells or control lysate provided by Cisbio. HTRF ratio was calculated as (acceptor signal at 665 nm/donor signal at 620 nm)×10^4. Background HTRF levels were determined from the control well containing the donor, but no acceptor, antibody. Background HTRF levels were subtracted from all samples. Readouts were reported as HTRF levels relative to HTRF levels of DMSO-treated cells. Four-parameter non-linear regressions were performed in GraphPad Prism 7.02 to obtain DC50 values. DC50 values are provided in Table 7, wherein A<1 nM, 1 nM≤B≤10 nM, and 10 nM<C<1 μM.
Background: Time-resolved FRET reads energy transfer from a long-lived donor to a nearby acceptor.

T1 sequence (Q06187 whole entry): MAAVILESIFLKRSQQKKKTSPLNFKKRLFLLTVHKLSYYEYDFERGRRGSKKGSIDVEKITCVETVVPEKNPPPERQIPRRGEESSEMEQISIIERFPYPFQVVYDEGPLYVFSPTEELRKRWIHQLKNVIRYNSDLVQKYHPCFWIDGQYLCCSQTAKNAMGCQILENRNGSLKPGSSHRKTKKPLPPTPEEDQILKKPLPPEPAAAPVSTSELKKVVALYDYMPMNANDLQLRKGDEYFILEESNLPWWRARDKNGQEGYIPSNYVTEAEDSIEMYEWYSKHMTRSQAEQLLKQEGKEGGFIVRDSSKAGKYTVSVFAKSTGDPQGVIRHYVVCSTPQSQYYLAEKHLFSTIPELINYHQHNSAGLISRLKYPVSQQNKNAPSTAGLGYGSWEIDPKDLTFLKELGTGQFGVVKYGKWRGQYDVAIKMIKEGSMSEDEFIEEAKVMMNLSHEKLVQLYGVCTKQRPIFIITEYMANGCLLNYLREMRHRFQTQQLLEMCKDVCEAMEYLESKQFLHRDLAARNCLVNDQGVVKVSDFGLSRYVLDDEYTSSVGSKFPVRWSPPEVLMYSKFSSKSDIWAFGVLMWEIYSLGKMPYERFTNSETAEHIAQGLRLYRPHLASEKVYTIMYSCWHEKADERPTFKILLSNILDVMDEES

As for `C[C@H]1CN(C(=O)CNc2cccc3c2C(=O)N(C2CCC(=O)NC2=O)C3=O)CCN1c1ccc(Nc2cc(-c3ccnc(N4CCn5c(cc6c5CC(C)(C)C6)C4=O)c3CO)cn(C)c2=O)nc1` (stereo partly shown) [Compound 35], the DC50 is 0.001 to 0.01 µM.
In the case of `Cn1cc(-c2ccnc(-n3ncc4cc(C(C)(C)C)cc(F)c4c3=O)c2CO)cc(Nc2cc3n(n2)CCN(CCCCCCc2cccc4c2CN(C2CCC(=O)NC2=O)C4=O)C3)c1=O` (stereo not shown) [Compound 19] it was 0.001 to 0.01 µM.
In the case of `C[C@H]1CN(C(=O)CCOCCNc2cccc3c2C(=O)N(C2CCC(=O)NC2=O)C3=O)CCN1c1ccc(Nc2cc(-c3ccnc(N4CCn5c(cc6c5CC(C)(C)C6)C4=O)c3CO)cn(C)c2=O)nc1` (stereo partly shown) [Compound 55] it was 0.001 to 0.01 µM.
For `Cn1cc(-c2ccnc(-n3ncc4cc(C(C)(C)C)cc(F)c4c3=O)c2CO)cc(Nc2cc3n(n2)CCN(C(=O)CN2CCN(CCCc4cccc5c4C(=O)N(C4CCC(=O)NC4=O)C5=O)CC2)C3)c1=O` (stereo not shown) [Compound 14] the value was 0.001 to 0.01 µM; for `Cn1cc(-c2ccnc(-n3ncc4cc(C(C)(C)C)cc(F)c4c3=O)c2CO)cc(Nc2cc3n(n2)CCN(C(=O)CCOCCCc2cccc4c2C(=O)N(C2CCC(=O)NC2=O)C4=O)C3)c1=O` (stereo not shown) [Compound 21], 0.01 to 1 µM; for `Cn1cc(-c2ccnc(-n3ncc4cc(C(C)(C)C)cc(F)c4c3=O)c2CO)cc(Nc2cc3n(n2)CCN(C(=O)CCOCCOCCOCCNc2cccc4c2C(=O)N(C2CCC(=O)NC2=O)C4=O)C3)c1=O` (stereo not shown) [Compound 3], 0.001 to 0.01 µM.
The compound `Cn1cc(-c2ccnc(-n3ccc4cc(C5CC5)cc(F)c4c3=O)c2CO)cc(Nc2cc3n(n2)CCN(C(=O)CCOCCCc2ccc4c(c2)C(=O)N(C2CCC(=O)NC2=O)C4=O)C3)c1=O` (stereo not shown) [Compound 24] displayed a DC50 of 0.001 to 0.01 µM.
For `C[C@H]1CN(C(=O)N(C)CCOCCOCCOCCOCCOCCCc2cccc3c2CN(C2CCC(=O)NC2=O)C3=O)CCN1c1ccc(Nc2cc(-c3ccnc(N4CCn5c(cc6c5CC(C)(C)C6)C4=O)c3CO)cn(C)c2=O)nc1` (stereo partly shown) [Compound 45] the value was 0.001 to 0.01 µM; for `Cn1cc(-c2ccnc(-n3ncc4cc(C(C)(C)C)cc(F)c4c3=O)c2CO)cc(Nc2cc3n(n2)CCN(CCCc2cccc4c2CN(C2CCC(=O)NC2=O)C4=O)C3)c1=O` (stereo not shown) [Compound 20], 0.001 to 0.01 µM.
In the case of `Cn1cc(-c2ccnc(-n3ncc4cc(C(C)(C)C)cc(F)c4c3=O)c2CO)cc(Nc2cc3n(n2)CCN(C(=O)[C@H]2CC[C@H](Nc4cccc5c4C(=O)N(C4CCC(=O)NC4=O)C5=O)CC2)C3)c1=O` (stereo partly shown) [Compound 15] it was 0.001 to 0.01 µM.
For `Cn1cc(-c2ccnc(-n3ncc4cc(C(C)(C)C)cc(F)c4c3=O)c2CO)cc(Nc2cc3n(n2)CCN(C(=O)CCCc2cccc4c2CN(C2CCC(=O)NC2=O)C4=O)C3)c1=O` (stereo not shown) [Compound 13] the value was 0.01 to 1 µM; for `Cn1cc(-c2ccnc(-n3ncc4cc(C(C)(C)C)cc(F)c4c3=O)c2CO)cc(Nc2cc3n(n2)CCN(C(=O)CCNc2cccc4c2C(=O)N(C2CCC(=O)NC2=O)C4=O)C3)c1=O` (stereo not shown) [Compound 10], 0.01 to 1 µM.
Consider `C[C@H]1CN(C(=O)CCOCCOCCOCCOCCOCCCc2cccc3c2CN(C2CCC(=O)NC2=O)C3=O)CCN1c1ccc(Nc2cc(-c3ccnc(N4CCn5c(cc6c5CC(C)(C)C6)C4=O)c3CO)cn(C)c2=O)nc1` (stereo partly shown) [Compound 53], for which the DC50 was < 0.001 µM.
For `C[C@H]1CN(C(=O)[C@H]2CC[C@H](Nc3cccc4c3C(=O)N(C3CCC(=O)NC3=O)C4=O)CC2)CCN1c1ccc(Nc2cc(-c3ccnc(N4CCn5c(cc6c5CC(C)(C)C6)C4=O)c3CO)cn(C)c2=O)nc1` (stereo partly shown) [Compound 31] the value was 0.001 to 0.01 µM; for `C[C@@H]1CN(C(=O)N(C)CCOCCOCCOCCOCCCc2cccc3c2CN(C2CCC(=O)NC2=O)C3=O)CCN1c1ccc(Nc2cc(-c3ccnc(N4CCn5c(cc6c5CC(C)(C)C6)C4=O)c3CO)cn(C)c2=O)nc1` (stereo partly shown) [Compound 44], 0.001 to 0.01 µM.
In the case of `C[C@@H]1CN(C(=O)CCOCCOCCOCCOCCOCCNc2cccc3c2C(=O)N(C2CCC(=O)NC2=O)C3=O)CCN1c1ccc(Nc2cc(-c3ccnc(N4CCn5c(cc6c5CC(C)(C)C6)C4=O)c3CO)cn(C)c2=O)nc1` (stereo partly shown) [Compound 50] it was 0.001 to 0.01 µM; in that of `Cn1cc(-c2ccnc(-n3ncc4cc(C(C)(C)C)cc(F)c4c3=O)c2CO)cc(Nc2cc3n(n2)CCN(C(=O)CCCCc2cccc4c2CN(C2CCC(=O)NC2=O)C4=O)C3)c1=O` (stereo not shown) [Compound 11], 0.001 to 0.01 µM.
`C[C@@H]1CN(C(=O)CCOCCOCCOCCOCCCc2cccc3c2CN(C2CCC(=O)NC2=O)C3=O)CCN1c1ccc(Nc2cc(-c3ccnc(N4CCn5c(cc6c5CC(C)(C)C6)C4=O)c3CO)cn(C)c2=O)nc1` (stereo partly shown) [Compound 54] registered a DC50 of 0.001 to 0.01 µM.
In the case of `C[C@H]1CN(C(=O)CN2CCN(CCCc3cccc4c3CN(C3CCC(=O)NC3=O)C4=O)CC2)CCN1c1ccc(Nc2cc(-c3ccnc(N4CCn5c(cc6c5CC(C)(C)C6)C4=O)c3CO)cn(C)c2=O)nc1` (stereo partly shown) [Compound 30] it was 0.001 to 0.01 µM.
For `C[C@H]1CN(C(=O)CCCc2cccc3c2CN(C2CCC(=O)NC2=O)C3=O)CCN1c1ccc(Nc2cc(-c3ccnc(N4CCn5c(cc6c5CC(C)(C)C6)C4=O)c3CO)cn(C)c2=O)nc1` (stereo partly shown) [Compound 33] the value was 0.001 to 0.01 µM.
For `C[C@H]1CN(C(=O)CCOCCCc2cccc3c2CN(C2CCC(=O)NC2=O)C3=O)CCN1c1ccc(Nc2cc(-c3ccnc(N4CCn5c(cc6c5CC(C)(C)C6)C4=O)c3CO)cn(C)c2=O)nc1` (stereo partly shown) [Compound 43] the value was 0.001 to 0.01 µM.
`C[C@@H]1CN(C(=O)NCCCCCCOCCCc2cccc3c2CN(C2CCC(=O)NC2=O)C3=O)CCN1c1ccc(Nc2cc(-c3ccnc(N4CCn5c(cc6c5CC(C)(C)C6)C4=O)c3CO)cn(C)c2=O)nc1` (stereo partly shown) [Compound 48] had a DC50 of 0.001 to 0.01 µM.
As for `C[C@@H]1CN(CCOCCOCCOCCNc2cccc3c2C(=O)N(C2CCC(=O)NC2=O)C3=O)CCN1c1ccc(Nc2cc(-c3ccnc(N4CCn5c(cc6c5CC(C)(C)C6)C4=O)c3CO)cn(C)c2=O)nc1` (stereo partly shown) [Compound 41], the DC50 lay in the range of 0.001 to 0.01 µM.
In the case of `CN[C@@H](C)C(=O)N[C@H](C(=O)N1C[C@@H](NC(=O)CCOCCOCCOCCC(=O)N2CCn3nc(Nc4cc(-c5ccnc(-n6ncc7cc(C(C)(C)C)cc(F)c7c6=O)c5CO)cn(C)c4=O)cc3C2)C[C@H]1C(=O)N[C@@H]1CCCc2ccccc21)C1CCCCC1` [Compound 5, (2S,4S)-4-(3-(2-(2-(3-(2-((2′-(6-(tert-butyl)-8-fluoro-1-oxophthalazin-2(1H)-yl)-3′-(hydroxymethyl)-1-methyl-6-oxo-1,6-dihydro-[3,4′-bipyridin]-5-yl)amino)-6,7-dihydropyrazolo[1,5-a]pyrazin-5(4H)-yl)-3-oxopropoxy)ethoxy)ethoxy)propanamido)-1-((S)-2-cyclohexyl-2-((S)-2-(methylamino)propanamido)acetyl)—N—((R)-1,2,3,4-tetrahydronaphthalen-1-yl)pyrrolidine-2-carboxamide] it was 0.01 to 1 µM; in that of `C[C@H]1CN(C(=O)CCCN2CCN(c3cc4c(cc3F)C(=O)N(C3CCC(=O)NC3=O)C4=O)CC2)CCN1c1ccc(Nc2cc(-c3ccnc(N4CCn5c(cc6c5CC(C)(C)C6)C4=O)c3CO)cn(C)c2=O)nc1` (stereo partly shown) [Compound 58], 0.001 to 0.01 µM; in that of `C[C@H]1CN(C(=O)CN2CCN(CCc3cccc4c3CN(C3CCC(=O)NC3=O)C4=O)CC2)CCN1c1ccc(Nc2cc(-c3ccnc(N4CCn5c(cc6c5CC(C)(C)C6)C4=O)c3CO)cn(C)c2=O)nc1` (stereo partly shown) [Compound 26], 0.001 to 0.01 µM.
For `C[C@H]1CN(C(=O)[C@H]2C[C@@H](OCCNc3cccc4c3C(=O)N(C3CCC(=O)NC3=O)C4=O)C2)CCN1c1ccc(Nc2cc(-c3ccnc(N4CCn5c(cc6c5CC(C)(C)C6)C4=O)c3CO)cn(C)c2=O)nc1` (stereo partly shown) [Compound 25] the value was < 0.001 µM.
`C[C@H]1CN(C(=O)CN2CCN(CCCc3cccc4c3C(=O)N(C3CCC(=O)NC3=O)C4=O)CC2)CCN1c1ccc(Nc2cc(-c3ccnc(N4CCn5c(cc6c5CC(C)(C)C6)C4=O)c3CO)cn(C)c2=O)nc1` (stereo partly shown) [Compound 32] gave a DC50 of 0.001 to 0.01 µM.
In turn, `C[C@@H]1CN(C(=O)CCCN2CCN(c3ccc4c(c3)C(=O)N(C3CCC(=O)NC3=O)C4=O)CC2)CCN1c1ccc(Nc2cc(-c3ccnc(N4CCn5c(cc6c5CC(C)(C)C6)C4=O)c3CO)cn(C)c2=O)nc1` (stereo partly shown) [Compound 56] returned a DC50 of 0.001 to 0.01 µM.
In the case of `CN[C@@H](C)C(=O)N[C@H](C(=O)N1C[C@@H](NC(=O)CCOCCC(=O)N2CCn3nc(Nc4cc(-c5ccnc(-n6ncc7cc(C(C)(C)C)cc(F)c7c6=O)c5CO)cn(C)c4=O)cc3C2)C[C@H]1C(=O)N[C@@H]1CCCc2ccccc21)C1CCCCC1` [Compound 4, (2S,4S)-4-(3-(3-(2-((2′-(6-(tert-butyl)-8-fluoro-1-oxophthalazin-2(1H)-yl)-3′-(hydroxymethyl)-1-methyl-6-oxo-1,6-dihydro-[3,4′-bipyridin]-5-yl)amino)-6,7-dihydropyrazolo[1,5-a]pyrazin-5(4H)-yl)-3-oxopropoxy)propanamido)-1-((S)-2-cyclohexyl-2-((S)-2-(methylamino)propanamido)acetyl)—N—((R)-1,2,3,4-tetrahydronaphthalen-1-yl)pyrrolidine-2-carboxamide] it was 0.01 to 1 µM.
For `C[C@H]1CN(C(=O)CCOCCN2CCN(CCOCCOCCNc3cccc4c3C(=O)N(C3CCC(=O)NC3=O)C4=O)CC2)CCN1c1ccc(Nc2cc(-c3ccnc(N4CCn5c(cc6c5CC(C)(C)C6)C4=O)c3CO)cn(C)c2=O)nc1` (stereo partly shown) [Compound 42] the value was 0.01 to 1 µM.
